From US5801254A, “Arteminolide derivatives and process for the manufacture thereof” (Korea Institute of Science and Technology, priority 1996, dated 1998)
Like-named read-outs stand apart in the source and are kept apart here.

How the values were obtained:
[1] = tested on: angiogenesis, chorioallantoic membrane (CAM); assay: Angiogenesis suppressing activity, chorioallantoic membrane (CAM) assay; type: in vivo; conditions: fertilized chicken egg, read-out: IC50 values for Angiogenesis Suppression
Method: Angiogenesis was determined in accordance with the chorioallantoic membrane(CAM) assay method of Kusaka et al. described in Biochem. Biophy. Res. Comm., 174, 1070(1991) by using a fertilized chicken egg.
A fertilized chicken egg(Pulmuwon co., Korea) was incubated at 37°-38° C. and a humidity of more than 90%. Here, 0 day-embryo means that the fertilized egg had been storaged at 18° C. for no more than 3-4 days since laying.
The pointed end of the fertilized egg was scratched with a knife, laid horizontally, the scratched site was punctured with a 5 ml syringe and 2 ml of albumin was extracted from the fertilized egg. The puncture hole was then sealed with a glass-tape. The fertilized egg, laid such that the sealed hole is located at the bottom, was incubated under the same condition described above.
The other end of the fertilized egg where the air sac is located, i.e., the end opposite to the hole site was opened, a window having a diameter of 2-3 cm was installed therein, the window was sealed with a glass-tape, and the incubation was resumed.
At this time, a chorioalletoic membrane(CAM) of 2-5 mm diameter develop. A arteminolide sample was dissolved in distilled water or ethanol, 10 μl of the sample solution was dropped on quartered Thermanox coverslip(Nunc, Co.,) and dried in a clean bench. The sealing glass-tape was removed, the treated Thermanox coverslip obtained above was laid on the CAM and then sealed with a glass-tape. All tools used in the above procedure were pre-sterilized with 70% ethanol.
The sealing glass-tape was removed. 1 ml of Intralipose(fat emulsion, Green Cross co., Korea) was taken with syringe, removed an air bobble therefrom and injected into an area below the CAM.
Angiogenesis suppressing activity was then calculated in accordance with the following equation: [formula]

[2] = molecular target: T1, farnesyl-protein transferase (FPTase) (Rattus norvegicus, UniProt Q02293+Q04631); assay: Farnesyl-protein transferase inhibiting activity, scintillation proximity assay with 3H-FPP and biotin-lamin B peptide; type: biochemical; conditions: read-out: IC50 values for FPTase Inhibition
T1 construct: a cerebrum obtained from white rat; from tissue; host or cells: rat cerebrum (male Sprague-Dawley, 100-150 g), homogenate, partially purified on Q Sepharose Fast Flow
Method: First, a cerebrum obtained from white rat(male Spraguo Dowley 100-150 g) was washed with physiological saline solution and homogenized. The homogenized solution was centrifuged and partially purified by using Q sepharose fast flow column to obtain farnesyl protein transferase(FPTase).
10 μl of a sample, 40 μl of FPTase obtained above, 10 μl of an assay buffer(50 mM Tris-HCl, pH 7.5, 25 mM MgCl2, 2 mM KCl, 5 mM DTT, 5 mM Na2 HPO4, 0.01% Triton X-100), 20 μl of diluted ^3 H-FPP and 20 μl of biotin-lamin B peptide were mixed together and the resulting mixture was reacted at room temperature for 30 minutes. 150 μl of SPA bead/stop reagent solution was added to the mixture and the enzymatic activity was determined by examining the extent of biotin lamin B peptide farneslyation, expressed by a unit of count per minute(CPM), with a liquid scintillation counter.

Solubility = type: physicochemical
[3] = MeOH, acetone, chloroform, DMSO

SMILES | IC50 [2] [µM] | Solubility (Solubility; [3]) | Solubility (Solubility; hexane, H2O) | IC50 ([2]; listed as C) [µM] | IC50 ([2]; listed as E) [µM] | IC50 ([1]; listed as A) [µM] | IC50 ([1]; Gallus gallus) [µM] | IC50 ([1]; listed as C) [µM] | IC50 ([1]; listed as E) [µM] | IC50 ([1]; listed as F) [µM]
C=C1C(=O)OC2C1CCC(C)(O)C13C=CC(C)(C21)C1(C3)C(=O)OC2C3C(C)=CC(=O)C3=C(C)CC(OC(=O)CC(C)C)C21 (stereo not drawn) [Arteminolide A] | 0.38 | – | – | – | – | 5.4 | – | – | – | –
C=C1C(=O)OC2C1CCC(C)(O)C13C=CC(C)(C21)C1(C3)C(=O)OC2C3C(C)=CC(=O)C3=C(C)CC(OC(=O)C=C(C)C)C21 (stereo not drawn) [Arteminolide B] | 0.4 | soluble | insoluble | – | – | – | 5.2 | – | – | –
C=C1C(=O)OC2C1CCC(C)(O)C13C=CC(C)(C21)C1(C3)C(=O)OC2C3C(C)=CC(=O)C3=C(C)CC(OC(=O)/C(C)=C\C)C21 (stereo not drawn) [Arteminolide C] | – | soluble | insoluble | 0.74 | – | – | – | 0.5 | – | –
C=C1C(=O)OC2C1CCC(C)(O)C13C=CC(C)(C21)C1(C3)C(=O)OC2C3C(C)=CC(=O)C3=C(C)CC(OC(=O)CC(C)C)C21 (stereo not drawn) [Arteminolide F] | 160 | soluble | insoluble | – | – | – | – | – | – | 24

Continued, in another order:

IC50 [2] [µM] | Solubility (Solubility; [3]) | Solubility (Solubility; hexane, H2O) | IC50 ([2]; listed as C) [µM] | IC50 ([2]; listed as E) [µM] | SMILES | IC50 ([1]; listed as A) [µM] | IC50 ([1]; Gallus gallus) [µM] | IC50 ([1]; listed as C) [µM] | IC50 ([1]; listed as E) [µM] | IC50 ([1]; listed as F) [µM]
0.63 | soluble | insoluble | – | – | C=C1C(=O)OC2C1CCC(C)(O)C13C=CC(C)(C21)C1(C3)C(=O)OC2C3C(C)=CC(=O)C3=C(C)CC(OC(=O)/C(C)=C/C)C21 (stereo not drawn) [Arteminolide D] | – | 6.2 | – | – | –
– | – | insoluble | – | 150 | C=C1C(=O)OC2C1CCC(C)(O)C13C=CC(C)(C21)C1(C3)C(=O)OC2C3C(C)=CC(=O)C3=C(C)CC(OC(=O)/C(C)=C\C)C21 (stereo not drawn) [Arteminolide E] | – | – | – | 20 | –
